Results on 28 compounds are retold here after patent US11318137B2, “Quinazoline compounds as modulators of Ras signaling” (VANDERBILT UNIVERSITY, priority 2017, dated 2022).

In the assay the target is T1, SOS-mediated nucleotide exchange on Ras (Homo sapiens, UniProt Q07889).
T1 sequence (Q07889 1-1333): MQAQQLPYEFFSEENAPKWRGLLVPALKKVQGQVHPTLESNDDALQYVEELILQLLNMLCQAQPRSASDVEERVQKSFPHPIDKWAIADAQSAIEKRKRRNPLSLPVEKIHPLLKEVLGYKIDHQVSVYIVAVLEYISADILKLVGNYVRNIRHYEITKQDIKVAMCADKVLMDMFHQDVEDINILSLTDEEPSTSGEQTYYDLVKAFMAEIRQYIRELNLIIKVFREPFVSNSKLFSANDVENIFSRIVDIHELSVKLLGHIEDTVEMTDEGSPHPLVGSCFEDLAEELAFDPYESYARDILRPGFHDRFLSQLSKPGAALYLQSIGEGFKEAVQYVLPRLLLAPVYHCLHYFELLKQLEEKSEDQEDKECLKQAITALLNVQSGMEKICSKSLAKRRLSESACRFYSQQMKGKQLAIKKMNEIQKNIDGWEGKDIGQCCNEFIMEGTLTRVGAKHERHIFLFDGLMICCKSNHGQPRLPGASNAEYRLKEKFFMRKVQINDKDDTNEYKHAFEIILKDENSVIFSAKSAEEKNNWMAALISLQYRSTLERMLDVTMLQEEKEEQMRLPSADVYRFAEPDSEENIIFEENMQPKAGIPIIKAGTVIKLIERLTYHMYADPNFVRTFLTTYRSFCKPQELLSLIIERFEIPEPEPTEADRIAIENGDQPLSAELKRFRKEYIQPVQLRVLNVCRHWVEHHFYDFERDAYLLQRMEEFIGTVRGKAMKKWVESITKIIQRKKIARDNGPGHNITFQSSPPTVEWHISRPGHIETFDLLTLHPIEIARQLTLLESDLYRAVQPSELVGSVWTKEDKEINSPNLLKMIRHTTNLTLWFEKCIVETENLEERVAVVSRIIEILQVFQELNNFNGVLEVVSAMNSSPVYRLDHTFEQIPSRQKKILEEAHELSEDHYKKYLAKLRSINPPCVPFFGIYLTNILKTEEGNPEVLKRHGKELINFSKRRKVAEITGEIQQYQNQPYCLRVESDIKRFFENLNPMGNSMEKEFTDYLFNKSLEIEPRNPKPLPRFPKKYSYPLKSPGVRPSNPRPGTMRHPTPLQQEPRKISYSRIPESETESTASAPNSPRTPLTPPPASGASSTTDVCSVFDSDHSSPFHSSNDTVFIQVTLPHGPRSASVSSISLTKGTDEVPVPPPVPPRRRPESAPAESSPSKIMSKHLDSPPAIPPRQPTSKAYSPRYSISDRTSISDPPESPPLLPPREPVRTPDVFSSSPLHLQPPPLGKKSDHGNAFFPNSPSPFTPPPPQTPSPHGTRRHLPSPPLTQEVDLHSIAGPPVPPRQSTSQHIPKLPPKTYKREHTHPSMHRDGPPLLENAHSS
In words: SOS-mediated nucleotide exchange on Ras (BODIPY-GDP fluorescence). The format is biochemical. To be noted: Ras loaded with BODIPY-GDP, GTP and SOS added; EC50 from derived exchange rates. As for the experimental part:
A. SOS-Mediated Nucleotide Exchange on Ras
Compounds of the present invention were tested for their ability to modify the rate at which Ras exchanges a labeled nucleotide guanosine diphosphate (GDP) analog for guanosine triphosphate (GTP). Briefly, test compounds, then GTP and the Ras GEF SOS (Son of Sevenless) are added to a buffered solution containing Ras protein loaded with BODIPY-GDP. Changes in fluorescence indicating exchange of the labeled GDP for GTP are monitored over time. Raw fluorescence data was fit to a single exponential decay function and derived rates were plotted as mean values. EC50 values were calculated by plotting mean derived rates as a function of compound concentration and fit using a four-parameter dose-response curve. Full assay details are disclosed in: Burns, M. C.; Sun, Q.; Daniels, R. N.; Camper, D. V.; Kennedy, J. P.; Phan, J.; Olejniczak, E. O.; Lee, T.; Waterson, A. G.; Rossanese, O. W.; Fesik, S. W. “Approach for targeting Ras with small molecules that activate SOS-mediated nucleotide exchange” Proc. Natl. Acad. Sci. 2014; 11(9): 3401-3406. PMCID: PMC3948241.

Structures are written as SMILES. Some results are limits rather than exact numbers.

For the compound `Cc1cc(F)cc(Nc2nc(N[C@H](C)C(C)(C)C)c3cccc(C4=CCNCC4)c3n2)c1` [Example 80, (R)—N^4-(3,3-dimethylbutan-2-yl)-N^2-(3-fluoro-5-methylphenyl)-8-(1,2,3,6-tetrahydropyridin-4-yl)quinazoline-2,4-diamine], the EC50 (in general, the concentration needed to bring the measured effect to its halfway point) is 1 to 5 µM. In turn, `C[C@@H](Nc1nc(Nc2ccc(F)c(Cl)c2)nc2c(C3CNC3)cccc12)C1CC1` [Example 61, (R)-8-(azetidin-3-yl)-N^2-(3-chloro-4-fluorophenyl)-N^4-(1-cyclopropylethyl)quinazoline-2,4-diamine] yielded a half-maximal effective concentration (EC50) of 1 to 5 µM. The figure for `FC(F)(F)c1cccc(Nc2nc(NCc3ccco3)c3ccccc3n2)c1` [Example 8, N^44-(furan-2-ylmethyl)-N^2-(3-(trifluoromethyl)phenyl)quinazoline-2,4-diamine] is 5 to 30 µM. Consider `COc1cccc(CNc2nc(NCc3ccco3)c3ccccc3n2)c1` [Example 12, N^4-(furan-2-ylmethyl)-N^2-(3-methoxybenzyl)quinazoline-2,4-diamine], for which the EC50 lay within 5 to 30 µM. Next, `C[C@@H](Nc1nc(NCc2cccc(Cl)c2F)nc2ccccc12)C1CC1` [Example 25, (R)—N^2-(3-chloro-2-fluorobenzyl)-N^4-(1-cyclopropylethyl)quinazoline-2,4-diamine]: 1 to 5 µM; `CCC(C)CNc1nc(Nc2ccc(F)c(Cl)c2)nc2ccccc12` (stereo not shown) [Example 16, N^2-(3-chloro-4-fluorophenyl)-N^4-(2-methylbutyl)quinazoline-2,4-diamine]: 5 to 30 µM; `Cc1ccc(CNc2nc(Nc3ccc(F)c(Cl)c3)nc3ccccc23)o1` [Example 15, N^2-(3-chloro-4-fluorophenyl)-N^4-((5-methylfuran-2-yl)methyl)quinazoline-2,4-diamine]: 5 to 30 µM. The figure for `C[C@@H](Nc1nc(Nc2ccc(F)c(Cl)c2)nc2c(Br)cccc12)C1CC1` [Example 46, (R)-8-bromo-N^2-(3-chloro-4-fluorophenyl)-N-(1-cyclopropylethyl)quinazoline-2,4-diamine] is > 30 µM. For the compound `C[C@@H](Nc1nc(NCc2cccc(Cl)c2F)nc2c(C3=CCNCC3)cccc12)C(C)(C)C` [Example 129, (R)—N^2-(3-chloro-2-fluorobenzyl)-N^4-(3,3-dimethylbutan-2-yl)-8-(1,2,3,6-tetrahydropyridin-4-yl)quinazoline-2,4-diamine], the concentration giving a half-maximal response (EC50) was 5 to 30 µM. For the compound `c1coc(CNc2nc(Nc3ccc4[nH]nnc4c3)nc3ccccc23)c1` [Example 11, N^2-(1H-benzo [d][1,2,3]triazol-5-yl)-N^4-(furan-2-ylmethyl)quinazoline-2,4-diamine], the EC50 was > 30 µM. The figure for `Cc1cccc(CNc2nc(N[C@H](C)C3CC3)c3ccccc3n2)c1F` [Example 26, (R)—N^4-(1-cyclopropylethyl)-N^2-(2-fluoro-3-methylbenzyl)quinazoline-2,4-diamine] is 1 to 5 µM; for `CC(C)[C@@H](C)Nc1nc(Nc2cc(F)cc(F)c2)nc2ccccc12` [Example 20, (R)—N^2-(3,5-difluorophenyl)-N^4-(3-methylbutan-2-yl)quinazoline-2,4-diamine] it is 5 to 30 µM.

Compound `C[C@@H](Nc1nc(Nc2ccc(F)c(Cl)c2)nc2c(C3=CCNCC3)cccc12)C(C)(C)C` [Example 79, (R)—N^2-(3-chloro-4-fluorophenyl)-N^4-(3,3-dimethylbutan-2-yl)-8-(1,2,3,6-tetrahydropyridin-4-yl)quinazoline-2,4-diamine] came in with an EC50 of 5 to 30 µM. In turn, `C[C@@H](Nc1nc(Nc2cc(F)cc(F)c2)nc2ccccc12)C(C)(C)C` [Example 41, (R)—N^2-(3,5-difluorophenyl)-N^4-(3,3-dimethylbutan-2-yl)quinazoline-2,4-diamine] had an EC50 of 1 to 5 µM. Next, `C[C@@H](Nc1nc(NCc2ccccc2F)nc2ccccc12)C1CC1` [Example 29, (R)—N^4-(1-cyclopropylethyl)-N^2-(2-fluorobenzyl)quinazoline-2,4-diamine]: 5 to 30 µM; `C[C@@H](Nc1nc(Nc2cc(F)c(F)c(F)c2)nc2ccccc12)C1CC1` [Example 6, (R)—N^4-(1-cyclopropylethyl)-N^2-(3,4,5-trifluorophenyl)quinazoline-2,4-diamine]: 5 to 30 µM. `c1ccc(CNc2nc(Nc3ccccc3)nc3ccccc23)cc1` [Example 33, N^4-benzyl-N^2-phenylquinazoline-2,4-diamine]: the half-maximal effective concentration (EC50) was 5 to 30 µM. The figure for `C[C@@H](Nc1nc(Nc2ccc(F)c(Cl)c2)nc2c(C3=CCNCC3)cccc12)c1cccs1` [Example 88, (R)—N^2-(3-chloro-4-fluorophenyl)-8-(1,2,3,6-tetrahydropyridin-4-yl)-N^4-(1-(thiophen-2-yl)ethyl)quinazoline-2,4-diamine] is 1 to 5 µM. `c1ccc2c(NCC3CC3)nc(NCC3CCCO3)nc2c1` (stereo not shown) [Example 18, N^4-(cyclopropylmethyl)-N^2-((THF-2-yl)methyl)quinazoline-2,4-diamine]: the half-maximal effective concentration (EC50) is > 30 µM.

Take `Fc1ccc(Nc2nc(N[C@@H](C3CC3)C(F)(F)F)c3ccccc3n2)cc1Cl` [Example 45, (S)—N^2-(3-chloro-4-fluorophenyl)-N^4-(1-cyclopropyl-2,2,2-trifluoroethyl)quinazoline-2,4-diamine]: the EC50 is > 30 µM. With `CC[C@@H](Nc1nc(Nc2ccc(F)c(Cl)c2)nc2ccccc12)C1CCCC1` [Example 44, (R)—N^2-(3-chloro-4-fluorophenyl)-N^4-(1-cyclopentylpropyl)quinazoline-2,4-diamine], the half-maximal effective concentration (EC50) is > 30 µM. The figure for `CCC(CC)CNc1nc(Nc2ccc(F)c(Cl)c2)nc2ccccc12` [Example 31, N^2-(3-chloro-4-fluorophenyl)-N^4-(2-ethylbutyl)quinazoline-2,4-diamine] is 1 to 5 µM; for `c1ccc2c(NCC3CC3)nc(NCC3CCC3)nc2c1` [Example 17, N^2-(cyclobutylmethyl)-N^4-(cyclopropylmethyl)quinazoline-2,4-diamine] it is 5 to 30 µM. The figure for `Cc1cc(F)cc(Nc2nc(N[C@H](C)C(C)(C)C)c3cccc(CCN)c3n2)c1` [Example 83, (R)-8-(2-aminoethyl)-N^4-(3,3-dimethylbutan-2-yl)-N^2-(3-fluoro-5-methylphenyl)quinazoline-2,4-diamine] is 1 to 5 µM. The figure for `CCC(CC)CNc1nc(Nc2ccc(F)c(Cl)c2)nc2c(C#N)cccc12` [Example 99, 2-((3-chloro-4-fluorophenyl)amino)-4-((2-ethylbutyl)amino)quinazoline-8-carbonitrile] is 1 to 5 µM. Regarding `C[C@@H](Nc1nc(NCC2CCCCC2)nc2c(CN)cccc12)c1cccs1` [Example 96, (R)-8-(aminomethyl)-N^2-(cyclohexylmethyl)-N^4-(1-(thiophen-2-yl)ethyl)quinazoline-2,4-diamine], the EC50 is 1 to 5 µM. Turning to `C[C@@H](Nc1nc(Nc2ccc(F)c(Cl)c2)nc2ccccc12)C1CCCC1` [Example 43, (R)—N^2-(3-chloro-4-fluorophenyl)-N^4-(1-cyclopentylethyl)quinazoline-2,4-diamine], the 50% effective concentration (EC50) fell in the range of 1 to 5 µM. Next, `c1coc(CNc2nc(Nc3ccc4c(c3)CCC4)nc3ccccc23)c1` [Example 10, N^2-(2,3-dihydro-1H-inden-5-yl)-N^4-(furan-2-ylmethyl)quinazoline-2,4-diamine]: 5 to 30 µM.
